Reference: patent US7456146B2, “Lytic peptide prodrugs” (GHC Research Development Corporation, priority 2001, dated 2008)
Starred links: 1 amine or outer side, 2 acyl side, 3 side chain; linkers in the order of their positions; H or OH if unused. Groups on a side chain read outwards from the residue. No end group written: not given here. γGlu = O=C(O)[C@H](CCC(=O)[*:2])N[*:1]

Legend:
SK-OV-3 = assay: lytic activity on cultured tumor cells, ovarian tumor SK-OV-3 (FIG. 4); type: cell-based; details: 1, 10, 50 or 100 μM peptide
Procedure: (§1) This experiment, utilized a melittin analog having A [ε-γ]-Glu-[α-γ]-Glu at each of lysines 21 and 23: NH2-[…][ε-γ]-Glu-[α-γ]-Glu)-Arg-Lys([ε-γ]-Glu-[α-γ]-Glu)-Arg-Gln-Gln-COOH. (SEQ ID NO: 19) Two prostate tumors (PNCap and DU0145), two ovarian tumors (HeLa and SK-OV-3), one lung tumor (LLC 1) and one melanoma (B 16) were tested. Cultured cells were treated with 1, 10, 50 or 100 μM peptide.

[1] = system: prostate cells not expressing PSMA (PC3); assay: toxicity to prostate cells not expressing PSMA (FIG. 5); type: cell-based; details: 25 and 50 mM concentrations
Text: (§2) The same analog was used to treat a PSMA-expressing prostate cells (LNCaP-FCG), ovarian cancer cells (HeLa) or prostate cells not expressing PSMA (PC3).

LLC 1 = assay: lytic activity on cultured tumor cells, lung tumor LLC 1 (FIG. 4); type: cell-based; details: 1, 10, 50 or 100 μM peptide
Procedure: as §1

mice = assay: toxicity of escalating doses in mice; type: in vivo; details: 50, 100, 150 and 200 mM
Procedure: To assess the toxicity of this analog, mice were treated with escalating doses of analog, either subcutaneously or intravenously.

DU0145 = assay: lytic activity on cultured tumor cells, prostate tumor DU0145 (FIG. 4); type: cell-based; details: 1, 10, 50 or 100 μM peptide
Procedure: as §1

[2] = system: PSMA-expressing prostate cells (LNCaP-FCG); assay: toxicity to PSMA-expressing prostate cells (FIG. 5); type: cell-based; details: 25 and 50 mM concentrations
Text: as §2

HeLa = assay: lytic activity on cultured tumor cells, HeLa (FIG. 4, FIG. 5); type: cell-based
Procedure: as §1, §2

B 16 = assay: lytic activity on cultured tumor cells, melanoma B 16 (FIG. 4); type: cell-based; details: 1, 10, 50 or 100 μM peptide
Procedure: as §1

PNCap = assay: lytic activity on cultured tumor cells, prostate tumor PNCap (FIG. 4); type: cell-based; details: 1, 10, 50 or 100 μM peptide
Procedure: as §1

nucleated cells = details: cited from earlier work
[3] = system: human prostate cancer cells (LNCaP); assay: ATP depletion assay (ATP bioluminescence), LNCaP (FIG. 3); type: cell-based; details: 50 or 100 μM; after 1 hour
Text: (§3) In order to obtain a more quantitative result, the assay was repeated and decrease in ATP levels was used as a surrogate marker for live versus dead cells. ATP plays a central role in the energy status of the cell and the regulation of enzymatic activity. The intracellular ATP level is strictly regulated. The assay of ATP has been used as a rapid and convenient measure of viable cell numbers. ATP level can be enzymatically determined with firefly luciferase, which specifically catalyzes the hydrolysis of ATP. The amount of light generated by this enzymatic reaction is directly related to the amount of ATP in the original sample.
(§4) For this purpose, the ATP Bioluminescence Assay Kit CLS II from Boehringer-Mannheim (Cat. No. 1699695) was employed. Briefly, 10^6 cells in 200 μl of medium containing the peptide, as above, were incubated at 37° C. in a CO2 incubator for 60 min. The cells were then lysed with 10 μl of 10% Triton X-100. Each lysate was transferred into a tube containing 155 μl of distilled water and 25 μl of stock luciferase and chemiluminescence was measured in a luminometer as directed by the manufacturer. As can been seen from FIG. 3, ATP is dramatically depleted in the presence of either 50 or 100 μM peptide, as compared to the controls.

[4] = system: human prostate cancer cells (LNCaP); assay: cell lysis assay, LNCaP prostate tumor cells (FIG. 1); type: cell-based; details: 50 μM; after 15 minutes
Procedure: For cell lysis assay, 10^6 LNCaP prostate tumor cells were cultured in 48-well plate in 200 μl culture medium containing different concentrations of the peptide. The culture medium for LNCaP cell was RPMI 1640 medium with 2 mM L-glutamine adjusted to contain 1.5 g/L sodium bicarbonate, 4.5 g/L glucose, 10 mM HEPES, 1.0 mM sodium pyruvate, 90%; fetal bovine serum 10%. […]

mouse L-cells [5] = assay: ATP depletion assay (ATP bioluminescence), mouse L-cells (FIG. 3); type: cell-based; details: 50 or 100 μM; 1 hour
Text: as §3, §4

mouse L-cells [6] = assay: cell lysis assay, mouse L-cells (FIG. 1); type: cell-based; details: 50 μM; after 24 hours

Compound: CC[C@H](C)[C@H](NC(=O)CN)C(=O)NCC(=O)N[C@@H](C)C(=O)N[C@H](C(=O)N[C@@H](CC(C)C)C(=O)N[C@@H](CCCCN)C(=O)N[C@H](C(=O)N[C@@H](CC(C)C)C(=O)N[C@H](C(=O)N[C@H](C(=O)NCC(=O)N[C@@H](CC(C)C)C(=O)N1CCC[C@H]1C(=O)N[C@@H](C)C(=O)N[C@@H](CC(C)C)C(=O)N[C@H](C(=O)N[C@@H](CO)C(=O)N[C@@H](Cc1c[nH]c2ccccc12)C(=O)N[C@H](C(=O)N[C@@H](CCCCNC(=O)CC[C@H](NC(=O)CC[C@H](N)C(=O)O)C(=O)O)C(=O)N[C@@H](CCCNC(=N)N)C(=O)N[C@@H](CCCCNC(=O)CC[C@H](NC(=O)CC[C@H](N)C(=O)O)C(=O)O)C(=O)N[C@@H](CCCNC(=N)N)C(=O)N[C@@H](CCC(N)=O)C(=O)N[C@@H](CCC(N)=O)C(=O)O)[C@@H](C)CC)[C@@H](C)CC)[C@@H](C)O)[C@@H](C)O)C(C)C)C(C)C [melittin analog]
- lytic activity (SK-OV-3): strong lytic activity
- toxicity to cells [1]: relatively unaffected
- lytic activity (LLC 1): strong lytic activity
- tolerated concentration relative to concentration needed to kill a mouse using the unmasked melittin peptide (mice): 50-200 fold
- condition of mice after treatment (mice; subcutaneously or intravenously, weeks following treatment): remained healthy, apparently unaffected
- lytic activity (DU0145): strong lytic activity
- toxicity to cells [2]: highly toxic
- lytic activity (HeLa; 1, 10, 50 or 100 μM peptide): strong lytic activity
- toxicity to cells (HeLa; 25 and 50 mM concentrations): highly toxic
- lytic activity (B 16): strong lytic activity
- lytic activity (PNCap): strong lytic activity

Compound: NH2-Gly-Phe-Ile-Ala-Thr-Leu-Cys-Thr-Lys-Val-Leu-Asp-Phe-Gly-Ile-Asp-Lys-Leu-Ile-Gln-Leu-Ile-Glu-Asp-Lys-CONH2 (H-GFIATLCTKVLDFGIDKLIQLIEDK-NH2; listed as Entamoeba histolytica) [Amoebapore Helix 3]
- concentration with cytolytic activity (nucleated cells): 10 to 100 µM

Compound: amoebapore helix 3-γ-Glu-γ-Glu: 25-residue C-terminal amidated amoebapore helix 3 peptide with two γ-linked glutamates on the ε amino group of the C-terminal lysine (GFIATLCTKVLDFGIDKLIQLIEDK([γGlu-γGlu])-NH2; N-terminus assumed; SMILES CC[C@H](C)[C@H](NC(=O)CNC(=O)[C@H](Cc1ccccc1)NC(=O)[C@H](CC(=O)O)NC(=O)[C@H](CC(C)C)NC(=O)[C@@H](NC(=O)[C@H](CCCCN)NC(=O)[C@@H](NC(=O)[C@H](CS)NC(=O)[C@H](CC(C)C)NC(=O)[C@@H](NC(=O)[C@H](C)NC(=O)[C@@H](NC(=O)[C@H](Cc1ccccc1)NC(=O)CN)[C@@H](C)CC)[C@@H](C)O)[C@@H](C)O)C(C)C)C(=O)N[C@@H](CC(=O)O)C(=O)N[C@@H](CCCCN)C(=O)N[C@@H](CC(C)C)C(=O)N[C@H](C(=O)N[C@@H](CCC(N)=O)C(=O)N[C@@H](CC(C)C)C(=O)N[C@H](C(=O)N[C@@H](CCC(=O)O)C(=O)N[C@@H](CC(=O)O)C(=O)N[C@@H](CCCCNC(=O)CC[C@H](NC(=O)CC[C@H](N)C(=O)O)C(=O)O)C(N)=O)[C@@H](C)CC)[C@@H](C)CC)
- cell lysis by ATP depletion [3]: completely lysed
- cell lysis [4]: completely lysed
- cell lysis by ATP depletion (mouse L-cells [5]): remain unaffected
- cell lysis (mouse L-cells [6]): remain unaffected
